The values that follow come from patent US9907800B2, “Kinase inhibitors and method of treating cancer” (University Health Network, priority 2010, dated 2018).

Common to all, as to type: biochemical
The target in one test is Aurora B (Homo sapiens (Human), UniProt Q96GD4). In words: Aurora B inhibition assay (Z-Lyte). The note with it: read-out: Aurora B IC50 Ranges.
The target in the next test is FLT3 (Homo sapiens (Human), UniProt P36888). The test is described as follows: FLT3 inhibition assay (Z-Lyte). To be noted: read-out: Flt3 IC50 Ranges.
A further test concerns the target human PLK4 (Homo sapiens (Human), UniProt O00444). The test is described as follows: PLK4 inhibition assay (indirect ELISA). The note with it: read-out: PLK4 IC50 Ranges. Background: In an ELISA, binding on a coated surface is turned into a signal by an enzyme label.

The structures appear in SMILES notation. Structures can show the parent of a compound that is named as a salt. Some results are limits rather than exact numbers.

Aurora B, sequence (Q96GD4 whole entry): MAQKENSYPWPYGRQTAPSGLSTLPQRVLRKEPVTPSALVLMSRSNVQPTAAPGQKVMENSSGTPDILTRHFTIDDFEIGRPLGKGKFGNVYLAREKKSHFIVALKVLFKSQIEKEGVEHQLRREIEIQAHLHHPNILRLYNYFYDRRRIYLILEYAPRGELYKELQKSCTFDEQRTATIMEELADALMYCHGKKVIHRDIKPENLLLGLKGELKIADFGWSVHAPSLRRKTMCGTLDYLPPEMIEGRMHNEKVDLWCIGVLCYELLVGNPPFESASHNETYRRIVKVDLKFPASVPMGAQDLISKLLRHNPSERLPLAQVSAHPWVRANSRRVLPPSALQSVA
FLT3, sequence (P36888 27-993): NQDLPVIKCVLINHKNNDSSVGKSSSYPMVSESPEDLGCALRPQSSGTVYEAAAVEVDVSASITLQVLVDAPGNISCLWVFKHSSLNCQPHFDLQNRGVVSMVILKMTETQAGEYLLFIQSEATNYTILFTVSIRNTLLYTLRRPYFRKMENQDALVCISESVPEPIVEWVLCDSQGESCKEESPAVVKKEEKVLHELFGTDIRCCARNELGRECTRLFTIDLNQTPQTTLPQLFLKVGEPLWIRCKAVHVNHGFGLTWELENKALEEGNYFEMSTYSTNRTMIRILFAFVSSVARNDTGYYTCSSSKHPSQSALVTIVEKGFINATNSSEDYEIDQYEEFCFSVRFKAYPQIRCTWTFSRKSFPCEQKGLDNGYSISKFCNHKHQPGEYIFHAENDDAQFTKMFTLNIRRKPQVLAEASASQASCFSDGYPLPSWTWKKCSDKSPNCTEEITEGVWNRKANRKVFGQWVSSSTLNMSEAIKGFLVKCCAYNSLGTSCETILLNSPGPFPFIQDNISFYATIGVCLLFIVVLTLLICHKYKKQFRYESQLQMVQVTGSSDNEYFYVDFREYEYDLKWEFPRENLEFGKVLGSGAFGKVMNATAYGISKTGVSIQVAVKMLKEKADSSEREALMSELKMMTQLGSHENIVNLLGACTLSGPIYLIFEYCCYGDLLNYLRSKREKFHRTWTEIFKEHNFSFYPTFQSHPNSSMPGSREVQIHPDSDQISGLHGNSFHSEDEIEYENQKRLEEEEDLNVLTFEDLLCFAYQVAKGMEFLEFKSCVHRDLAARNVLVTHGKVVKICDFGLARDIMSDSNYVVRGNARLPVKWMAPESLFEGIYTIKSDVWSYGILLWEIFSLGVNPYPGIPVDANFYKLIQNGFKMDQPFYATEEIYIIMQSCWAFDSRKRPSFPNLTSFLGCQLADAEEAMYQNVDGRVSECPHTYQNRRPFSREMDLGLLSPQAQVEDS
human PLK4, sequence (O00444 1-391): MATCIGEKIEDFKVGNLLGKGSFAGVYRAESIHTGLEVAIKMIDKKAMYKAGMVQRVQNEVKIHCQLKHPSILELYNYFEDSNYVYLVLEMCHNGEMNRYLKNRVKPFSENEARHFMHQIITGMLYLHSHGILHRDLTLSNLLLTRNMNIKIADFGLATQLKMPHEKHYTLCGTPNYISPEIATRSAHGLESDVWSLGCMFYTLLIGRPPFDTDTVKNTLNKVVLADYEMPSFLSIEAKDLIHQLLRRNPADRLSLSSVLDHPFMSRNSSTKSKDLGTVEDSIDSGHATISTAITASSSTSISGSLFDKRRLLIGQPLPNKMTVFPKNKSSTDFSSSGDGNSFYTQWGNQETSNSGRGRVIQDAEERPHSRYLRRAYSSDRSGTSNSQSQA
Description for Aurora B: Aurora B inhibition was determined using the Z-Lyte assay kit from Invitrogen. […] The % inhibition values were determined according to the manufacturer's directions and IC50 values were obtained using a non-linear 4 point logistic curve fit (XLfit4, IDBS)
Description for FLT3: The enzymatic activity of FLT3 was determined using the Z-Lyte assay kit from Invitrogen (Invitrogen cat #PV3191). […] The % inhibition values were determined according to the manufacturer's directions and IC50 values were obtained using a non-linear 4 point logistic curve fit (XLfit4, IDBS).
Description for human PLK4: PLK4 activity was measured using an indirect ELISA detection system. […] The colourimetric reaction was allowed to continue for 5 minutes, followed by addition of stop solution (0.5 N sulphuric acid), and quantified by detection at 450 nm with either a monochromatic or filter based plate reader (Molecular Devices M5 or Beckman DTX880, respectively).
Compounds were pre-incubated in the presence of enzyme for 15 minutes prior to addition of ATP and the activity remaining quantified using the above described activity assay. […] The IC50 value was determined using a non-linear 4 point logistic curve fit (XLfit4, IDBS) with the formula; (A+(B/(1+((x/C)^D)))), where A=background value, B=range, C=inflection point, D=curve fit parameter.

In general, IC50 refers to the concentration needed to halve the response being measured. Consider `COc1ccc2c(c1)[C@]1(C[C@H]1c1ccc3c(/C=C/c4ccc(CN5CC[C@@H](F)C5)cc4)n[nH]c3c1)C(=O)N2` [Example A112, (1R,2S)-(E)-2-(3-(4-(((R)-3-fluoropyrrolidin-1-yl)methyl)styryl)-1H-indazol-6-yl)-5′-methoxyspiro[cyclopropane-1,3′-indolin]-2′-one 2,2,2-trifluoroacetate], for which the IC50 is less than 100 nM on Aurora B, 100 to 1000 nM on FLT3 and less than 100 nM on human PLK4.
As to `CCc1ccc2c(c1)[C@]1(C[C@H]1c1ccc3c(-c4cccc(CN5CCOCC5)c4)n[nH]c3c1)C(=O)N2` (relative stereo) [Example A141, (1R*,2S*)-5′-ethyl-2-(3-(3-(morpholinomethyl)phenyl)-1H-indazol-6-yl)spiro[cyclopropane-1,3′-indolin]-2′-one 2,2,2-trifluoroacetate], the IC50 at Aurora B, at FLT3 and on human PLK4 was more than 1000 nM each time.
With `COc1ccc2c(c1)[C@]1(C[C@H]1c1ccc3c(-c4ccc5c(c4)CNCC5)n[nH]c3c1)C(=O)N2` [Example A71, (1R,2S)-5′-methoxy-2-(3-(1,2,3,4-tetrahydroisoquinolin-7-yl)-1H-indazol-6-yl)spiro[cyclopropane-1,3′-indolin]-2′-one 2,2,2-trifluoroacetate salt], the IC50 is less than 100 nM on Aurora B, 100 to 1000 nM at FLT3 and less than 100 nM at human PLK4.
For the molecule `COc1ccc2c(c1)[C@]1(C[C@H]1c1ccc3c(-c4ccc(N5C[C@@H](C)N[C@@H](C)C5)cc4)n[nH]c3c1)C(=O)N2` [Example A126, (1R,2S)-2-(3-(4-(cis-3,5-dimethylpiperazin-1-yl)phenyl)-1H-indazol-6-yl)-5′-methoxyspiro[cyclopropane-1,3′-indolin]-2′-one 2,2,2-trifluoroacetate], the IC50 on Aurora B was less than 100 nM; on FLT3, 100 to 1000 nM; at human PLK4, less than 100 nM.
`COc1ccc2c(c1)[C@]1(C[C@H]1c1ccc3c(-c4cccc(N5CCNCC5)c4)n[nH]c3c1)C(=O)N2` (relative stereo) [Example A47, (1R*,2S*)-5′-methoxy-2-(3-(3-(piperazin-1-yl)phenyl)-1H-indazol-6-yl)spiro[cyclopropane-1,3′-indolin]-2′-one 2,2,2-trifluoroacetate]: the figures for the IC50 on Aurora B, on FLT3 and on human PLK4 were 100 to 1000 nM, more than 1000 nM and less than 100 nM, respectively.
Regarding `COc1ccc2c(c1)[C@]1(C[C@H]1c1ccc3c(-c4cccc(CN5CCCCC5)c4)n[nH]c3c1)C(=O)N2` (relative stereo) [Example A44, (1R*,2S*)-5′-methoxy-2-(3-(3-(piperidin-1-ylmethyl)phenyl)-1H-indazol-6-yl)spiro[cyclopropane-1,3′-indolin]-2′-one 2,2,2-trifluoroacetate], the IC50 is 100 to 1000 nM at Aurora B, more than 1000 nM on FLT3 and less than 100 nM on human PLK4.
Consider `COc1ccc2c(c1)[C@]1(C[C@H]1c1ccc3c(-c4ccc(N(C)CCN(C)C)cc4)n[nH]c3c1)C(=O)N2` [Example A129, (1R,2S)-2-(3-(4-((2-(dimethylamino)ethyl)(methyl)amino)phenyl)-1H-indazol-6-yl)-5′-methoxyspiro[cyclopropane-1,3′-indolin]-2′-one 2,2,2-trifluoroacetate], for which the values for the half-inhibitory concentration (IC50) at Aurora B, on FLT3 and on human PLK4 were less than 100 nM, 100 to 1000 nM and less than 100 nM, respectively.
On to `COCCN1C(=O)[C@@]2(C[C@H]2c2ccc3c(/C=C/c4ccc(CN(C)C)cc4)n[nH]c3c2)c2ccccc21` [Example A131, (1R,2S)-(E)-2-(3-(4-((dimethylamino)methyl)styryl)-1H-indazol-6-yl)-1′-(2-methoxyethyl)spiro[cyclopropane-1,3′-indolin]-2′-one 2,2,2-trifluoroacetate], for which the IC50 on Aurora B was less than 100 nM; at FLT3, more than 1000 nM; at human PLK4, less than 100 nM.
